Columns and labels:
[1] = system: rat 9 L gliosarcoma cells; assay: Dark cytotoxicity assay, 9L cells; type: cell-based; settings: 24 hour exposure, concentrations up to 250 μM, read-out: IC50 (dark toxicity, inhibition of proliferation)
Description: (§1) Human glioblastoma U373 MG, hamster V79 fibroblast, and mouse melanoma B16 cells were obtained from the American Type Culture Collection. Rat gliosarcoma cells were kindly provided by the University of California at San Francisco Brain Tumor Research Group. All cells were maintained in log phase monolayer cultures with RPMI 1640 supplemented with 10% fetal bovine serum and 2 mM glutamine.
(§2) Cells were seeded in 96-well culture plates, and were allowed to settle and attach for 24-48 hours. Triplicate wells were then exposed to twofold serial dilutions of test compounds at concentrations up to 250 μM. Compounds 4, 6, 10, and 12 in crystalline form were carefully weighed and dissolved in 100% DMSO to prepare stock solutions. Subsequent dilutions were performed directly in the culture medium just before the medium was administered to cells. After short-term (2 hour) or long-term (24 hour) exposure, cells were washed, and the wells were refilled with fresh culture medium. For dark toxicity trials, cells were allowed to proliferate for an additional 48-72 hours. For phototoxicity trials, washed cells were irradiated for 10 minutes with broad spectrum (600-700 nm) red light, and were then returned to an incubator for 48-72 hours.

[2] = system: human U-373MG glioblastoma cells; assay: Dark cytotoxicity assay, U-373 MG cells; type: cell-based; settings: 24 hour exposure, concentrations up to 250 μM, read-out: IC50 (dark toxicity, inhibition of proliferation)
Description: as §1, §2

[3] = system: healthy female Balb/c mice; settings: mouse, in vivo
Source text: So far we have determined maximum tolerated doses for compounds 4, 6, 16, 31, and 33 using healthy female Balb/c mice.

[4] = system: V79 hamster fibroblast cells; assay: Clonogenic cytotoxicity assay in V79 cells; type: cell-based; settings: concentrations up to 200 μM
Description: Human glioblastoma U373 MG, hamster V79 fibroblast, and mouse melanoma B16 cells were obtained from the American Type Culture Collection. Rat gliosarcoma cells were kindly provided by the University of California at San Francisco Brain Tumor Research Group. All cells were maintained in log phase monolayer cultures with RPMI 1640 supplemented with 10% fetal bovine serum and 2 mM glutamine. We have also determined the cytotoxicity of porphyrins 4, 16, 18, and 31 in V79 hamster fibroblast cells using a clonogenic assay. For each of these porphyrins, we found CS50>300 μM, and we observed no toxicity (i.e., no effect on colony survival) at concentrations up to 200 μM.

## meso-tetra[3-(1-methyl-nido-carboranyl)methylphenyl]porphyrin tetrapotassium salt [Compound 10]
[1]
  IC50: ~150 µM
[2]
  IC50: ~150 µM

## meso-tetra[4-(1-methyl-nido-carboranyl)methylphenyl]porphyrin tetrapotassium salt [Compound 4]
[3]
  maximum tolerated dose: exceeded 300 mg per kg of body weight
[1]
  IC50: ~150 µM
[4]
  toxicity (effect on colony survival): no toxicity
[2]
  IC50: ~150 µM

## Zn(II)-meso-tetra[4-(nido-carboranyl)phenyl]porphyrin tetrapotassium salt [Compound 18]
[4]
  toxicity (effect on colony survival): no toxicity

## meso-tetra[4-(nido-carboranyl)phenyl]porphyrin tetrapotassium salt [Compound 16]
[3]
  maximum tolerated dose: exceeded 300 mg per kg of body weight
[4]
  toxicity (effect on colony survival): no toxicity

## 5,15-bis[bis-3,5-(1-methyl-o-carboranyl)methylphenyl]porphyrin [Compound 33]
[3]
  maximum tolerated dose: exceeded 300 mg per kg of body weight

## Zn(II)-meso-tetra[4-(1-methyl-nido-carboranyl)methylphenyl]porphyrin tetrapotassium salt [Compound 6]
[3]
  maximum tolerated dose: exceeded 300 mg per kg of body weight
